Measurements published in patent US9981916B2 (Genentech, Inc., priority 2013, dated 2018).

Biological target: T1, RORc ligand binding domain (Homo sapiens, UniProt P51449)
T1 construct: host or cells: E. coli
T1 sequence (P51449 269-508 limits assumed): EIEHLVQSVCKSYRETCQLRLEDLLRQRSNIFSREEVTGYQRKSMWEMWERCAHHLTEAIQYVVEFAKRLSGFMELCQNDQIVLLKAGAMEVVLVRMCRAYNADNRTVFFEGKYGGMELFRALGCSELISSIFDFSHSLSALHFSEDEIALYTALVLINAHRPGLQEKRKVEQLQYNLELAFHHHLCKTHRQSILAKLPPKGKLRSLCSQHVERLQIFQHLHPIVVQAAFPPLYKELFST
Assay: In vitro RORc ligand binding assay (25-[3H]hydroxycholesterol displacement, filter binding)
Conditions: 6 nM 25-[3H]hydroxycholesterol, 0.6 ug/mL RORc receptor, 3 h at 25° C.
Method in brief: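 Compounds in 5% DMSO, either dose-response or screened at 1 and 10 uM, competed with 6 nM 25-[3H]hydroxycholesterol for 0.6 ug/mL RORc over 3 h at 25° C (HEPES pH 7.4, NaCl, MgCl2, DTT, BSA buffer). Bound tracer was filter-harvested and counted; nonspecific binding came from 1 uM 25-hydroxycholesterol.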

IC50 [nM] | Structure (SMILES)
30 | CC1(C)[C@@H]2CC[C@@]1(C(=O)N1CC(F)(F)C1)c1nnc(-c3c(F)cccc3F)cc12 [Example 139, (3,3-difluoroazetidin-1-yl)((5S,8S)-3-(2,6-difluorophenyl)-9,9-dimethyl-5,6,7,8-tetrahydro-5,8-methanocinnolin-8-yl)methanone]
2000 | CC1(C)[C@H]2CC[C@]1(CO)c1nnc(Oc3c(F)cccc3F)cc12 [Example 145, ((5R,8R)-3-(2,6-difluorophenoxy)-9,9-dimethyl-5,6,7,8-tetrahydro-5,8-methanocinnolin-8-yl)methanol]
245 | CC1(C)[C@@H]2CC[C@@]1(CN1CCNC1=O)c1nnc(-c3ccccc3F)cc12 [Example 34, 1-{[(5S,8R)-3-(2-fluorophenyl)-9,9-dimethyl-6,7-dihydro-5,8-methanocinnolin-8(5H)-yl]methyl}imidazolidin-2-one]
186 | CC1(C)[C@@H]2CC[C@@]1(c1nnco1)c1nnc(-c3c(F)cccc3F)cc12 [Example 110, (5S,8S)-3-(2,6-difluorophenyl)-9,9-dimethyl-8-(1,3,4-oxadiazol-2-yl)-5,6,7,8-tetrahydro-5,8-methanocinnoline]
1920 | CC1(C)[C@H]2CC[C@]1(CNC1COC1)c1nnc(-c3c(F)cccc3F)cc12 [Example 317, N-(((5R,8S)-3-(2,6-difluorophenyl)-9,9-dimethyl-5,6,7,8-tetrahydro-5,8-methanocinnolin-8-yl)methyl)oxetan-3-amine]
2400 | CC1(C)[C@H]2CC[C@]1(C(=O)NC1COC1)c1nnc(-c3c(F)cccc3F)cc12 [Example 187, (5R,8R)-3-(2,6-difluorophenyl)-9,9-dimethyl-N-(oxetan-3-yl)-5,6,7,8-tetrahydro-5,8-methanocinnoline-8-carboxamide]
524 | COC(=O)C1CN(C(=O)[C@@]23CC[C@@H](c4cc(-c5c(F)cccc5F)nnc42)C3(C)C)C1 [Example 136, methyl 1-((5R,8R)-3-(2,6-difluorophenyl)-9,9-dimethyl-5,6,7,8-tetrahydro-5,8-methanocinnoline-8-carbonyl)azetidine-3-carboxylate]
2460 | CC(=O)OCC1(C)[C@@H]2CC[C@@]1(C)c1nnc(-c3ccccc3F)cc12 (stereo partly drawn)
124 | Cn1nc([C@@]23CC[C@@H](c4cc(-c5c(F)cccc5F)nnc42)C3(C)C)oc1=O [Example 226, 5-((5R,8R)-3-(2,6-difluorophenyl)-9,9-dimethyl-5,6,7,8-tetrahydro-5,8-methanocinnolin-8-yl)-3-methyl-1,3,4-oxadiazol-2(3H)-one]
3270 | CC1(C)[C@H]2CC[C@]1(C(=O)Nc1ccc(C#N)nc1)c1nnc(-c3ccccc3F)cc12 (stereo in doubt) [Example 169, (5R,8R)-N-(6-cyanopyridin-3-yl)-3-(2-fluorophenyl)-9,9-dimethyl-5,6,7,8-tetrahydro-5,8-methanocinnoline-8-carboxamide]
134 | Cc1ncoc1[C@@]12CC[C@@H](c3cc(-c4c(F)cccc4F)nnc31)C2(C)C [Example 118, (5R,8R)-3-(2,6-difluorophenyl)-9,9-dimethyl-8-(4-methyl-1,3-oxazol-5-yl)-5,6,7,8-tetrahydro-5,8-methanocinnoline]
1550 | CC(C)CNC(=O)[C@]12CC[C@H](c3cc(-c4c(F)cccc4F)nnc31)C2(C)C [Example 209, (5S,8S)-3-(2,6-difluorophenyl)-N-isobutyl-9,9-dimethyl-5,6,7,8-tetrahydro-5,8-methanocinnoline-8-carboxamide]
139 | CCOC[C@]12CC[C@H](c3cc(-c4ccccc4F)nnc31)C2(C)C [Example 25, (5S,8S)-8-(ethoxymethyl)-3-(2-fluorophenyl)-9,9-dimethyl-5,6,7,8-tetrahydro-5,8-methanocinnoline]
222 | CC1(C)[C@H]2CC[C@]1(c1cnco1)c1nnc(-c3c(F)cccc3F)cc12 [Example 104, (5R,8R)-3-(2,6-difluorophenyl)-9,9-dimethyl-8-(1,3-oxazol-5-yl)-5,6,7,8-tetrahydro-5,8-methanocinnoline]
45 | COC[C@]12CC[C@H](c3cc(-c4c(F)cccc4Cl)nnc31)C2(C)C [Example 24, (5S,8S)-3-(2-chloro-6-fluorophenyl)-8-(methoxymethyl)-9,9-dimethyl-5,6,7,8-tetrahydro-5,8-methanocinnoline]
1050 | CC1(C)[C@H]2CC[C@]1(Cc1noc(O)n1)c1nnc(-c3c(F)cccc3F)cc12 [Example 58, 3-{[(5R,8R)-3-(2,6-difluorophenyl)-9,9-dimethyl-6,7-dihydro-5,8-methanocinnolin-8(5H)-yl]methyl}-1,2,4-oxadiazol-5-ol]
44 | CC1(C)[C@@H]2CC[C@@]1(C(=O)N1CCC1)c1nnc(-c3c(F)cccc3F)cc12 [Example 49, azetidin-1-yl[(5S,8S)-3-(2,6-difluorophenyl)-9,9-dimethyl-6,7-dihydro-5,8-methanocinnolin-8(5H)-yl]methanone]
191 | CC1(C)[C@@H]2CC[C@@]1(C(=O)N1CCC(F)(F)C1)c1nnc(-c3c(F)cccc3F)cc12 [Example 207, ((5S,8S)-3-(2,6-difluorophenyl)-9,9-dimethyl-5,6,7,8-tetrahydro-5,8-methanocinnolin-8-yl)(3,3-difluoropyrrolidin-1-yl)methanone]
2050 | CNC(=O)[C@@]12CC[C@@H](c3cc(-c4ccccc4F)nnc31)C2(C)C [Example 178, (5R,8R)-3-(2-fluorophenyl)-N,9,9-trimethyl-5,6,7,8-tetrahydro-5,8-methanocinnoline-8-carboxamide]
2800 | Cc1c[nH]nc1C1CN(C(=O)[C@]23CC[C@H](c4cc(-c5ccccc5F)nnc42)C3(C)C)C1 [Example 335, ((5S,8S)-3-(2-fluorophenyl)-9,9-dimethyl-5,6,7,8-tetrahydro-5,8-methanocinnolin-8-yl)(3-(4-methyl-1H-pyrazol-3-yl)azetidin-1-yl)methanone]
345 | CC1(C)[C@@H]2CC[C@@]1(C(=O)N1CC(C#N)C1)c1nnc(-c3c(F)cccc3F)cc12 [Example 259, 1-((5S,8S)-3-(2,6-difluorophenyl)-9,9-dimethyl-5,6,7,8-tetrahydro-5,8-methanocinnoline-8-carbonyl)azetidine-3-carbnitrite]
117 | CCc1nnc([C@@]23CC[C@@H](c4cc(-c5c(F)cccc5F)nnc42)C3(C)C)s1 [Example 124, (5R,8R)-3-(2,6-difluorophenyl)-9,9-dimethyl-8-(5-ethyl-1,3,4-thiadiazol-2-yl)-5,6,7,8-tetrahydro-5,8-methanocinnoline]
2420 | CC1(C)[C@@H]2CC(=O)[C@@]1(C)c1nnc(-c3ccccc3F)cc12 [Example 50, (5S,8R)-3-(2-fluorophenyl)-8,9,9-trimethyl-5,8-dihydro-5,8-methanocinnolin-7(6H)-one]
892 | CN1C[C@@H]2C[C@H]1CN2C(=O)[C@]12CC[C@H](c3cc(-c4c(F)cccc4F)nnc31)C2(C)C [Example 239, ((5S,8S)-3-(2,6-difluorophenyl)-9,9-dimethyl-5,6,7,8-tetrahydro-5,8-methanocinnolin-8-yl)((1S,4S)-5-methyl-2,5-diazabicyclo[2.2.1]heptan-2-yl)methanone]
